pIC50: −log10 of the molar value. The source made the active and inactive calls. No cut-off for these calls is given here.
Tests used:
[1] = biological target: Serine/threonine-protein kinase B-raf (Homo sapiens) (UniProt P15056); assay: Induction of BRAF degradation in human U87 cells at 10 uM incubated for 48 hrs in presence of 4-azido-N-(2-(2,6-dioxopiperidin-3-yl)-1,3-dioxoisoindolin-4-yl)butanamide by Western blot analysis; type: cell-based
U-87 MG [2] = assay: (§1) Induction of apoptosis in human U87 cells assessed as necrotic cells at 10 uM incubated for 48 hrs in presence of (2S,4R)-1-((S)-2-(5-azidopentanamido)-3,3-dimethylbutanoyl)-4-hydroxy-N-(4-(4-methylthiazol-5-yl)benzyl)pyrrolidine-2-carboxamide by Annexin V-FLTC/PI staining based flow cytometry (reference value: 0.60 %); type: functional, U-87MG ATCC
U-87 MG [3] = assay: as §1, with “late apoptotic” for “necrotic”, “5” for “10”, “3.71” for “0.60”; type: functional, U-87MG ATCC
[4] = biological target: Vascular endothelial growth factor receptor 2 (Homo sapiens) (UniProt P35968); assay: Induction of VEGFR2 degradation in human U87 cells at 2 uM incubated for 48 hrs in presence of (2S,4R)-1-((S)-2-(5-azidopentanamido)-3,3-dimethylbutanoyl)-4-hydroxy-N-(4-(4-methylthiazol-5-yl)benzyl)pyrrolidine-2-carboxamide by Western blot analysis; type: cell-based
U-87 MG [5] = assay: as §1, with “viable” for “necrotic”, “86.74” for “0.60”; type: functional, U-87MG ATCC; details: read-out: Activity
U-87 MG [6] = assay: Antiproliferative activity against human U87 cells incubated for 48 hrs in presence of (2S,4R)-1-((S)-2-(5-azidopentanamido)-3,3-dimethylbutanoyl)-4-hydroxy-N-(4-(4-methylthiazol-5-yl)benzyl)pyrrolidine-2-carboxamide by MTT assay; type: functional, cell-based, U-87MG ATCC
U-87 MG [7] = assay: Induction of apoptosis in human U87 cells assessed as viable cells at 10 uM incubated for 48 hrs in presence of 4-(4-(3-(4-chloro-3-(trifluoromethyl)phenyl)ureido)phenoxy)-N-(prop-2-yn-1-yl)picolinamide by Annexin V-FLTC/PI staining based flow cytometry (reference value: 86.74 %); type: functional, U-87MG ATCC; details: read-out: Activity
[8] = biological target: T1, Ephrin type-B receptor 4 (Homo sapiens) (UniProt P54760); assay: Induction of EphB4 degradation in human U87 cells at 10 uM incubated for 48 hrs by Western blot analysis; type: cell-based
T1 sequence (whole entry): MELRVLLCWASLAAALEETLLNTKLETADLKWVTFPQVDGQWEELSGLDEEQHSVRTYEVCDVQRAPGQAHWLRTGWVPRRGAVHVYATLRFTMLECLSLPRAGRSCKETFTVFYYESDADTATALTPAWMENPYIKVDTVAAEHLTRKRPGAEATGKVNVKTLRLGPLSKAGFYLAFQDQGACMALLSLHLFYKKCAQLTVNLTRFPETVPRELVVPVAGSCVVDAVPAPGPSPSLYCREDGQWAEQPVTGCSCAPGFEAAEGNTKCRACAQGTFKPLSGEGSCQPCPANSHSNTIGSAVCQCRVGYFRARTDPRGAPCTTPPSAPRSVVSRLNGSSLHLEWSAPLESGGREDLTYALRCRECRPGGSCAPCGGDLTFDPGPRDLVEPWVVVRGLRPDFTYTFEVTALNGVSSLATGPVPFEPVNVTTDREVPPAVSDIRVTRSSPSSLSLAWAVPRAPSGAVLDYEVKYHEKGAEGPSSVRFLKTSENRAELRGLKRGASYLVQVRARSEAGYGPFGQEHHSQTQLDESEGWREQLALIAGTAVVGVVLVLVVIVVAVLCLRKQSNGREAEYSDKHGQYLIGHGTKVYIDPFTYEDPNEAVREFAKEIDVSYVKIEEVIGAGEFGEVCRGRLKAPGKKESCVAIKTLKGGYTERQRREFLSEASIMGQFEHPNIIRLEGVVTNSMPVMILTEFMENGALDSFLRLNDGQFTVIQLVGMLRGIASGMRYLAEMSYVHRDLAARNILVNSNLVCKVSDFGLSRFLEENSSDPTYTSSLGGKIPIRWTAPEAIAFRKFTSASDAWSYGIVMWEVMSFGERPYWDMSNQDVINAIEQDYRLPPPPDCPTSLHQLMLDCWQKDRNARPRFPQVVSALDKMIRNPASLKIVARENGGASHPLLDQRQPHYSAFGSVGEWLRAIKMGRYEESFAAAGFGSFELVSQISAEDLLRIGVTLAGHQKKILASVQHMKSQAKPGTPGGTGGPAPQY

U-87 MG [9] = assay: Induction of apoptosis in human U87 cells assessed as late apoptotic cells at 1 uM incubated for 48 hrs in presence of 4-(4-(3-(4-chloro-3-(trifluoromethyl)phenyl)ureido)phenoxy)-N-(prop-2-yn-1-yl)picolinamide by Annexin V-FLTC/PI staining based flow cytometry (reference value: 3.71 %); type: functional, U-87MG ATCC
U-87 MG [10] = assay: Induction of apoptosis in human U87 cells assessed as late apoptotic cells at 5 uM incubated for 48 hrs in presence of 4-(4-(3-(4-chloro-3-(trifluoromethyl)phenyl)ureido)phenoxy)-N-(prop-2-yn-1-yl)picolinamide by Annexin V-FLTC/PI staining based flow cytometry (reference value: 3.71 %); type: functional, U-87MG ATCC

Vascular endothelial growth factor receptor 2 (Homo sapiens), sequence (P35968 whole entry): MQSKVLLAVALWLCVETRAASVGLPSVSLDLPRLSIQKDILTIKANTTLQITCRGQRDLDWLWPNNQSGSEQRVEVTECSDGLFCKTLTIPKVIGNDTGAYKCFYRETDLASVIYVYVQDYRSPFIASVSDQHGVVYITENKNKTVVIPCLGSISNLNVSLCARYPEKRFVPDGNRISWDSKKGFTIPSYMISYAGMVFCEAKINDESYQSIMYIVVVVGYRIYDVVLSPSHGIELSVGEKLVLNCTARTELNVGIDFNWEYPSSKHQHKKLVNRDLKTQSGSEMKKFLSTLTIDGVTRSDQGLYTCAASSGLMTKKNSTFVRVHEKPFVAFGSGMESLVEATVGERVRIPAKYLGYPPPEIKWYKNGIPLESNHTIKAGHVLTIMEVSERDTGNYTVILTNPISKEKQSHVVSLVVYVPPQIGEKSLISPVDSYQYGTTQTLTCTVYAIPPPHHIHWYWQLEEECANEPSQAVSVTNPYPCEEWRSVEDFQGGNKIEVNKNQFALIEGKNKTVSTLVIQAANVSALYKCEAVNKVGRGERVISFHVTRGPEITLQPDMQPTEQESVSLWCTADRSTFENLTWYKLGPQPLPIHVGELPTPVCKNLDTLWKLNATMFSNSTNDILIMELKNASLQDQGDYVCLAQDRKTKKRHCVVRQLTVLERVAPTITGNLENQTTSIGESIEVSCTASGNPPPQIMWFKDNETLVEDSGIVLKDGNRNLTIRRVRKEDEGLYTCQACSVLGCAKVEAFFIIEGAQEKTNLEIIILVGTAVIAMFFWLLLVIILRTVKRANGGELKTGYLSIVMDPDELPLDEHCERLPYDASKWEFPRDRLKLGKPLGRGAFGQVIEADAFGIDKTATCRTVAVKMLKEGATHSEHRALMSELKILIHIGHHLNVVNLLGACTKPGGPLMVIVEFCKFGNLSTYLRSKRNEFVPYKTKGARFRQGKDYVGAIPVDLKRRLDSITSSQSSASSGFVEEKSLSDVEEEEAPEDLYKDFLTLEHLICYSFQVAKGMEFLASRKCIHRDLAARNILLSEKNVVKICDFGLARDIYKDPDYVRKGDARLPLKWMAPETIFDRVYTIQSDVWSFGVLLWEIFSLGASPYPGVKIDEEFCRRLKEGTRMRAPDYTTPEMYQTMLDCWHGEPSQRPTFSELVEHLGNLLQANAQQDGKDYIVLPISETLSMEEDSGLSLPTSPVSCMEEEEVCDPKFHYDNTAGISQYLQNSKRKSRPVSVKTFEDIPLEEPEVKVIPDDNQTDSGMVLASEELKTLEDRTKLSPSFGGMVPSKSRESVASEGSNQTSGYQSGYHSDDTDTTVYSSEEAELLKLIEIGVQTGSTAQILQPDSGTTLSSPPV
Serine/threonine-protein kinase B-raf (Homo sapiens), sequence (P15056 whole entry): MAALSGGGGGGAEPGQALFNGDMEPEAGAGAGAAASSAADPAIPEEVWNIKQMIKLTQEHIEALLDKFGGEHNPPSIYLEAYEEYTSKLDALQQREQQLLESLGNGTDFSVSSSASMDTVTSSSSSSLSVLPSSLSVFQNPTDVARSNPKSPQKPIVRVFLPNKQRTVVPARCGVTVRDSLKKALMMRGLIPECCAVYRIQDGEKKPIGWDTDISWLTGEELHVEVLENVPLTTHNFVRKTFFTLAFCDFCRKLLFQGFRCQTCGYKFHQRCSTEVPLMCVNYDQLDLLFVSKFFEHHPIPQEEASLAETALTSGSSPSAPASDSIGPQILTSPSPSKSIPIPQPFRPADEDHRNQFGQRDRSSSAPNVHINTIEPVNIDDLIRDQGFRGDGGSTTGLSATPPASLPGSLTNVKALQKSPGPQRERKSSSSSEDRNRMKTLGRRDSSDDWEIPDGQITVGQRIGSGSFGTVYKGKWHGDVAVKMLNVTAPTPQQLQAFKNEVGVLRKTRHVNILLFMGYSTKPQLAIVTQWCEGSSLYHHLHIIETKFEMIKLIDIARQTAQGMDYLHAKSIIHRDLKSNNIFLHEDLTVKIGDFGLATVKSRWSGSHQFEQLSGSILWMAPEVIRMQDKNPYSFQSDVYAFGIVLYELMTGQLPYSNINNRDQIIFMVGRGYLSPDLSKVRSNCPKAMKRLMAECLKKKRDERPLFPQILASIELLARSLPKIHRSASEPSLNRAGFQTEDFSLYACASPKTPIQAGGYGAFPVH

Structure (SMILES) | Activity [1] | Activity (U-87 MG [2]) | Activity (U-87 MG [3]) | Activity [4] | viability at 10 µM (U-87 MG [5]) | pIC50 (U-87 MG [6]) | viability at 10 µM (U-87 MG [7]) | Activity [8] | Activity (U-87 MG [9]) | Activity (U-87 MG [10])
C#CCNC(=O)c1cc(Oc2ccc(NC(=O)Nc3ccc(Cl)c(C(F)(F)F)c3)cc2)ccn1 | Active | 25.6% | 73.25% | Active | 1.74% | 4.80 |  |  |  | 
[N-]=[N+]=NCCCC(=O)Nc1cccc2c1C(=O)N(C1CCC(=O)NC1=O)C2=O (stereo not given) |  |  |  |  |  |  | 1.74% | Active | 5.43% | 73.25%

Reference: ChEMBL document CHEMBL5620355, “Discovery of intracellular self-assembly protein degraders driven by tumor-specific activatable bioorthogonal reaction” (Eur J Med Chem, 2023)
